Source: US20230219906A1, “MACROCYCLIC-2-AMINO-3-FLUORO-BUT-3-ENAMIDES AS INHIBITORS OF MCL-1” (Janssen Pharmaceutica NV, priority 2020, published 2023)

Tests used:
[1] = molecular target: Myeloid Cell Leukemia 1(Mcl-1) (Homo sapiens, UniProt Q07820); assay: Terbium labeled Mcl-1 HTRF binding assay with Cy5-labeled BIM BH3 peptide; details: displacement of Cy5 Bim BH3 peptide; Ki=IC50/(1+[L]/Kd), [L]=8 nM, Kd=10 nM; 60 minutes at room temperature; read-out: Tb-MCL1 Ki
How it was run: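 TR-FRET displacement of Cy5-BIM BH3 peptide (8 nM; Kd 10 nM) from 25 pM Tb-labelled Mcl-1 in 10 mM Tris-HCl pH 7.5, 150 mM NaCl, 2 mM DTT, 0.0025% Tween-20, 0.1 mg/mL BSA, 1% DMSO. 60 min at room temperature; 665/620 nm ratio normalized to controls, IC50 from 11-point curve.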

[2] = system: MOLP-8 human multiple myeloma cell line; assay: Caspase-Glo 3/7 apoptosis induction assay in MOLP-8 cells; format: cell-based; details: Homo sapiens, MOLP-8, 2 h, caspase-3/7 activity, 2 hours at 37° C.; averaged over all runs on all batches; read-out: MOLP8 AC50
How it was run: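 MOLP-8 cells were treated for 2 h at 37° C with 10-dose, 1/3 serial dilutions ([…], 0.5% DMSO final, duplicates). Caspase-3/7 activity was read by Caspase-Glo luminescence 30 min after reagent addition. % effect was normalised between low (1% DMSO) and high (positive control) controls.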

Myeloid Cell Leukemia 1(Mcl-1), sequence (Q07820 whole entry): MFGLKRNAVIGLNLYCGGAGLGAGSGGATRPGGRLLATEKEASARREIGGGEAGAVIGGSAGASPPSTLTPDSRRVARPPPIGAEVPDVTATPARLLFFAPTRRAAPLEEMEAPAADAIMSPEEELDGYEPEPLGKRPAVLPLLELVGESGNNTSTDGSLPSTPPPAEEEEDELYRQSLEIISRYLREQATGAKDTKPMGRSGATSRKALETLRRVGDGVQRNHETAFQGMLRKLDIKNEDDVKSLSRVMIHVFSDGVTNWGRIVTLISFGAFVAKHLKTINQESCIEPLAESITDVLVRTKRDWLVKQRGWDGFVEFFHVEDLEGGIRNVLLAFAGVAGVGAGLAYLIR

## C[C@@H]1[C@@H](C)C/C=C(\F)[C@H](C(=O)N(C)C2CCCOC2)N2CCC[C@H]2CN2C[C@@]3(CCCc4cc(Cl)ccc43)COc3ccc(cc32)C(=O)NS1(=O)=O (stereo partly shown) [Compound 58]
[1]
  Ki: 0.041 nM
[2]
  AC50: 55.7 nM

## COCCN(C)C(=O)[C@H]1/C(F)=C/C[C@H](C)[C@@H](C)S(=O)(=O)NC(=O)c2ccc3c(c2)N(C[C@@H]2CCCN21)C[C@@]1(CCCc2cc(Cl)ccc21)CO3 [Compound 21]
[1]
  Ki: 0.075 nM
[2]
  AC50: 78 nM
